Where “and” joins values, the source holds several entries; their conditions need not be identical. Equal entries are not always repeated. Where two headings read alike, the source gives them in different places.
How the values were obtained:
PqsD protein [1] = target: T1, PqsD protein (Pseudomonas aeruginosa, UniProt P20582); experiment: Inhibition of HHQ formation by PqsD in vitro (HPLC-MS2 quantification of HHQ); format: biochemical, Pseudomonas aeruginosa UCBPP-PA14; conditions: 0.2 mM anthraniloyl-CoA, 0.35 mM 3-oxodecanoic acid, 1 μg PqsD, 2 min preincubation, 2 min at 37° C., pH 8.0
T1 construct: The 1-kb NdeI-EcoRI fragment of pqsD was cloned between the NdeI and EcoRI sites of pET28b(+), resulting in pET28b(+)-pqsD; fused on or other part: N-terminal His tag from pET28b(+)
T1 sequence (P20582 1-337): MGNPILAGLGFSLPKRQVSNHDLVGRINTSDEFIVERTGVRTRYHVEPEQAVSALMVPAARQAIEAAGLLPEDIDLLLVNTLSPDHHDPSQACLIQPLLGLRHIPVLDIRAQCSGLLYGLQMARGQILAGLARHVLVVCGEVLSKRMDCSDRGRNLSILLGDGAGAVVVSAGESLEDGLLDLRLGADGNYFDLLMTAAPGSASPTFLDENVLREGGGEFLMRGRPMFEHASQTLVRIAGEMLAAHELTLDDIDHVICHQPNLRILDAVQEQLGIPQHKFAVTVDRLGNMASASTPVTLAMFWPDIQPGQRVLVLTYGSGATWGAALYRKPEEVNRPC
Procedure: Experimental protocol. With the PqsD assay established so far, it is possible to screen for possible inhibitors of HHQ formation by PqsD in vitro. For this purpose the concentrations of anthraniloyl-CoA, 3-oxodecanoic acid and PqsD protein are assigned to fixed values. At first PqsD, anthraniloyl-CoA and the compound to be tested are preincubated for a fixed period. The putative inhibitor is added to the assay in increasing concentrations. The reaction is started by the addition of 3-oxodecanoic acid and incubated for a fixed period. Then the reaction is quenched by the addition of methanol to a final concentration of 50 percent. For each reaction the HHQ formation is quantified by HPLC/MS^2. By comparing the amounts of HHQ formed in presence of the different concentrations of the inhibitor to that of a control reaction without inhibitor, it can be calculated for the inhibitor concentration at which HHQ formation is 50 percent of the control reaction (IC50). […]
HHQ quantification by HPLC-MS^2—HPLC-MS analysis was carried out using a HPLC system from the Agilent 1100 series coupled to a Brucker Daltonics HCTultra ESI-MS iontrap instrument operated in positive ionization mode. […] For HHQ quantification the signal intensities of fragment ion 159.0 Da created by fragmentation of 244.0 Da were used. […]

PqsD protein [2] = target: T1, PqsD protein; experiment: Determination of kinetic parameters of PqsD (HHQ formation, HPLC-MS2); format: biochemical, Pseudomonas aeruginosa UCBPP-PA14
Procedure: Experimental protocol. […] The carbon-carbon bond formation between carbons 3 and 4 of the quinoline ring is likely to be catalyzed by one of the proteins PqsB, PqsC or PqsD which show all homology to the β-ketoacyl-acyl carrier protein synthase III family. To test of whether PqsD is necessary for HHQ formation, we purified recombinant PqsD protein and tried to readjust HHQ formation in vitro. The heterologous protein was incubated with anthraniloyl-CoA and 3-oxodecanoic acid and the reaction was analyzed by HPLC-MS.
HHQ quantification by HPLC-MS^2—HPLC-MS analysis was carried out using a HPLC system from the Agilent 1100 series coupled to a Brucker Daltonics HCTultra ESI-MS iontrap instrument operated in positive ionization mode. For separation a Onyx Monolythic C18 column (50×2 mm, Phenomenex) was used. […] For HHQ quantification the signal intensities of fragment ion 159.0 Da created by fragmentation of 244.0 Da were used. For creation of the standard curve HHQ standards containing 1, 5, 10, 20, 50, 100 and 200 ng ml^−1 were measured.
The reaction mixtures contained 50 mM Tris-HCl, pH 8.0, PqsD protein (1 μg), 0.2 mM anthraniloyl-CoA and 3-oxodecanoic acid ranging in concentration from 0.02 to 2 mM in a total volume of 50 μl. […] HHQ was quantified by HPLC by injecting 10 μl of the reaction mixture. […]

Row | SMILES | IC50 (PqsD protein [1]) | Km (PqsD protein [2]; fixed anthraniloyl-CoA 200 μM, varied 3-oxodecanoic acid 0.02 to 2 mM, 37° C., pH 8.0, triplicates, read-out: Km value of PqsD for 3-oxodecanoic acid) [µM] | Km (PqsD protein [2]; fixed anthraniloyl-CoA, varied 3-oxodecanoic acid concentrations, FIG. 4, read-out: Km value of PqsD (figure legend)) [µM]
1 | O=C(Nc1ccccc1C(=O)O)c1ccc(-c2ccccc2)c(Oc2ccccc2)c1 [2-[(2-phenoxybiphenyl-4-carbonyl)amino]benzoic acid] | 35 µM and ~35 µM | – | –
2 | CCCCCCCC(=O)CC(=O)O [3-oxodecanoic acid] | – | 562 ± 91 | 560

Source: US20130123360A1, “METHODS AND USES RELATING TO THE IDENTIFICATION OF COMPOUND ASSOCIATED WITH BACTERIAL INFECTION” (SANOFI-AVENTIS DEUTSCHLAND GMBH, priority 2010, published 2013)
